ChEMBL document CHEMBL3885861, “Open TG-GATES”

Species: Rattus norvegicus
Test: Open TG-GATES - Regimen: Single
Type: toxicity, organism-based, Sprague-Dawley
Set-up: regimen Single, gender Male, age 6 weeks
Details: in vivo, po, 25 mg/kg, route gavage, dose level Middle; for APTT / Bas / Eos / Fbg / Hb / Ht / Lym / MCH / MCHC / MCV / Mono / Neu / PT / Plat / RBC / Ret / WBC: tissue Blood; for KIDNEY_L / KIDNEY_R / KIDNEY_TOTAL: tissue Kidney; for LIVER: tissue Liver; for A/G / ALP / ALT / AST / BUN / CRE / Ca / Cl / DBIL / GLC / IP / K / LDH / Na / PL / RALB / TBIL / TC / TG / TP / gamma-GTP: tissue Plasma

Compound: NC1=NC(=O)C(c2ccccc2)O1 (configuration not stated) [PEMOLINE]
- TERMINAL_BW (3 h): 210.1 g
- APTT (3 h): 15.6 s
- Bas (3 h): 0%
- Eos (3 h): 1%
- Fbg (3 h): 280.4 mg/dL
- Hb (3 h): 13.5 g/dL
- Ht (3 h): 39.8%
- Lym (3 h): 74.2%
- MCH (3 h): 21.3 pg
- MCHC (3 h): 33.8%
- MCV (3 h): 62.9 fL
- Mono (3 h): 3.8%
- Neu (3 h): 20.6%
- PT (3 h): 13.1 s
- Plat (3 h): 115 x10_4/uL
- RBC (3 h): 633.2 x10_4/ul
- Ret (3 h): 8.8%
- WBC (3 h): 86.4 x10_2/uL
- KIDNEY_L (3 h): 0.9 g
- KIDNEY_R (3 h): 0.9 g
- KIDNEY_TOTAL (3 h): 1.8 g
- LIVER (3 h): 9.3 g
- A/G (3 h): 1
- ALP (3 h): 1568.2 IU/L
- ALT (3 h): 42.6 IU/L
- AST (3 h): 86 IU/L
- BUN (3 h): 8.2 mg/dL
- CRE (3 h): 0.2 mg/dL
- Ca (3 h): 10.5 mg/dL
- Cl (3 h): 106.4 meq/L
- DBIL (3 h): 0.01 mg/dL
- GLC (3 h): 185.2 mg/dL
- IP (3 h): 8.5 mg/dL
- K (3 h): 3.8 meq/L
- LDH (3 h): 104 IU/L
- Na (3 h): 140.4 meq/L
- PL (3 h): 122.4 mg/dL
- RALB (3 h): 2.7 g/dL
- TBIL (3 h): 0.044 mg/dL
- TC (3 h): 72.4 mg/dL
- TG (3 h): 39.6 mg/dL
- TP (3 h): 5.4 g/dL
- gamma-GTP (3 h): 1.4 IU/L
- TERMINAL_BW (6 h): 209.6 g
- APTT (6 h): 17.7 s
- Bas (6 h): 0.2%
- Eos (6 h): 1%
- Fbg (6 h): 316.4 mg/dL
- Hb (6 h): 13.6 g/dL
- Ht (6 h): 40%
- Lym (6 h): 72.2%
- MCH (6 h): 21.7 pg
- MCHC (6 h): 34%
- MCV (6 h): 63.7 fL
- Mono (6 h): 2.6%
- Neu (6 h): 23.6%
- PT (6 h): 13.4 s
- Plat (6 h): 122.6 x10_4/uL
- RBC (6 h): 629.6 x10_4/ul
- Ret (6 h): 9.8%
- WBC (6 h): 101.7 x10_2/uL
- KIDNEY_L (6 h): 0.9 g
- KIDNEY_R (6 h): 0.9 g
- KIDNEY_TOTAL (6 h): 1.8 g
- LIVER (6 h): 8.2 g
- A/G (6 h): 1
- ALP (6 h): 1568 IU/L
- ALT (6 h): 44 IU/L
- AST (6 h): 81.8 IU/L
- BUN (6 h): 7 mg/dL
- CRE (6 h): 0.2 mg/dL
- Ca (6 h): 10.4 mg/dL
- Cl (6 h): 108.2 meq/L
- DBIL (6 h): 0.01 mg/dL
- GLC (6 h): 179.2 mg/dL
- IP (6 h): 9.4 mg/dL
- K (6 h): 3.5 meq/L
- LDH (6 h): 67.6 IU/L
- Na (6 h): 140.8 meq/L
- PL (6 h): 121.4 mg/dL
- RALB (6 h): 2.8 g/dL
- TBIL (6 h): 0.052 mg/dL
- TC (6 h): 77 mg/dL
- TG (6 h): 15.2 mg/dL
- TP (6 h): 5.5 g/dL
- gamma-GTP (6 h): 1 IU/L
- TERMINAL_BW (9 h): 212 g
- APTT (9 h): 16 s
- Bas (9 h): 0%
- Eos (9 h): 0.6%
- Fbg (9 h): 316.2 mg/dL
- Hb (9 h): 13.7 g/dL
- Ht (9 h): 40.4%
- Lym (9 h): 75.2%
- MCH (9 h): 21.7 pg
- MCHC (9 h): 33.8%
- MCV (9 h): 64.2 fL
- Mono (9 h): 2.4%
- Neu (9 h): 21.2%
- PT (9 h): 13.4 s
- Plat (9 h): 112 x10_4/uL
- RBC (9 h): 630.8 x10_4/ul
- Ret (9 h): 9.7%
- WBC (9 h): 91.7 x10_2/uL
- KIDNEY_L (9 h): 0.9 g
- KIDNEY_R (9 h): 0.9 g
- KIDNEY_TOTAL (9 h): 1.7 g
- LIVER (9 h): 8.1 g
- A/G (9 h): 1
- ALP (9 h): 1640.8 IU/L
- ALT (9 h): 40.2 IU/L
- AST (9 h): 83.4 IU/L
- BUN (9 h): 8.6 mg/dL
- CRE (9 h): 0.2 mg/dL
- Ca (9 h): 10.6 mg/dL
- Cl (9 h): 106.4 meq/L
- DBIL (9 h): 0.014 mg/dL
- GLC (9 h): 191.6 mg/dL
- IP (9 h): 9.7 mg/dL
- K (9 h): 3.8 meq/L
- LDH (9 h): 94.4 IU/L
- Na (9 h): 141.4 meq/L
- PL (9 h): 137 mg/dL
- RALB (9 h): 2.8 g/dL
- TBIL (9 h): 0.044 mg/dL
- TC (9 h): 86.8 mg/dL
- TG (9 h): 27.2 mg/dL
- TP (9 h): 5.6 g/dL
- gamma-GTP (9 h): 1.4 IU/L
- TERMINAL_BW (24 h): 209.6 g
- APTT (24 h): 16.3 s
- Bas (24 h): 0%
- Eos (24 h): 1%
- Fbg (24 h): 290 mg/dL
- Hb (24 h): 12.9 g/dL
- Ht (24 h): 37.6%
- Lym (24 h): 80.4%
- MCH (24 h): 21.9 pg
- MCHC (24 h): 34.3%
- MCV (24 h): 63.7 fL
- Mono (24 h): 3.6%
- Neu (24 h): 14.4%
- PT (24 h): 13 s
- Plat (24 h): 107.2 x10_4/uL
- RBC (24 h): 589 x10_4/ul
- Ret (24 h): 8.2%
- WBC (24 h): 73.1 x10_2/uL
- KIDNEY_L (24 h): 0.9 g
- KIDNEY_R (24 h): 0.9 g
- KIDNEY_TOTAL (24 h): 1.8 g
- LIVER (24 h): 9.3 g
- A/G (24 h): 1
- ALP (24 h): 1533.8 IU/L
- ALT (24 h): 46.6 IU/L
- AST (24 h): 87.8 IU/L
- BUN (24 h): 15.4 mg/dL
- CRE (24 h): 0.2 mg/dL
- Ca (24 h): 10.6 mg/dL
- Cl (24 h): 104.4 meq/L
- DBIL (24 h): 0.014 mg/dL
- GLC (24 h): 176.8 mg/dL
- IP (24 h): 8.8 mg/dL
- K (24 h): 4.2 meq/L
- LDH (24 h): 71.6 IU/L
- Na (24 h): 140.6 meq/L
- PL (24 h): 128.2 mg/dL
- RALB (24 h): 2.7 g/dL
- TBIL (24 h): 0.032 mg/dL
- TC (24 h): 78 mg/dL
- TG (24 h): 50 mg/dL
- TP (24 h): 5.4 g/dL
- gamma-GTP (24 h): 1 IU/L
